For 23 molecules, T/C results are on record in PubChem BioAssay AID328 (DTP/NCI, 2004).

The subject of this test is BDF1 mice, P388 leukemia ip, median survival T/C. The test can be described thus: NCI In Vivo Anticancer Drug Screen. Data for tumor model P388 Leukemia (intraperitoneal) in B6D2F1 (BDF1) mice. Particulars: endpoint: median survival time, higher = longer survival. Summed up: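 Read-out is survival of treated animals expressed relative to the vehicle group, as a T/C ratio.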

[1] abbreviates: dose: 50.0 mg/kg/injection, schedule: Q04DX003 (ip), vehicle: saline with Tween-80.
Setting [2] is: dose: 200.0 mg/kg/injection, schedule: Q04DX003 (ip), vehicle: saline with Tween-80.
Where [3] appears, read: dose: 100.0 mg/kg/injection, schedule: Q04DX003 (ip), vehicle: Klucel (hydroxypropylcellulose) (HPC).
The mark [4] stands for this setting: dose: 200.0 mg/kg/injection, schedule: Q04DX003 (ip), vehicle: Klucel (hydroxypropylcellulose) (HPC).
The mark [5] stands for this setting: dose: 400.0 mg/kg/injection, schedule: Q04DX003 (ip), vehicle: Klucel (hydroxypropylcellulose) (HPC).
[6] abbreviates: dose: 100.0 mg/kg/injection, schedule: Q01DX009 (ip), vehicle: Klucel (hydroxypropylcellulose) (HPC).
The mark [7] stands for this setting: dose: 200.0 mg/kg/injection, schedule: Q01DX009 (ip), vehicle: Klucel (hydroxypropylcellulose) (HPC).
[8] abbreviates: dose: 400.0 mg/kg/injection, schedule: Q01DX009 (ip), vehicle: Klucel (hydroxypropylcellulose) (HPC).
Setting [9] is: dose: 50.0 mg/kg/injection, schedule: Q01DX009 (ip), vehicle: Klucel (hydroxypropylcellulose) (HPC).
Setting [10] is: dose: 25.0 mg/kg/injection, schedule: Q04DX003 (ip), vehicle: saline.
Where [11] appears, read: dose: 50.0 mg/kg/injection, schedule: Q01DX009 (ip), vehicle: saline.
[12] abbreviates: dose: 50.0 mg/kg/injection, schedule: Q04DX003 (ip), vehicle: saline.
Where [13] appears, read: dose: 100.0 mg/kg/injection, schedule: Q04DX003 (ip), vehicle: saline.
Setting [14] is: dose: 200.0 mg/kg/injection, schedule: Q01DX009 (ip), vehicle: saline.
The mark [15] stands for this setting: dose: 100.0 mg/kg/injection, schedule: Q04DX003 (ip), vehicle: saline with Tween-80.
Setting [16] is: dose: 50.0 mg/kg/injection, schedule: Q01DX009 (ip), vehicle: saline with Tween-80.
Setting [17] is: dose: 100.0 mg/kg/injection, schedule: Q01DX009 (ip), vehicle: saline with Tween-80.

Each structure is given as a SMILES string. Where “and” joins values, the source holds several entries; their conditions need not be identical. Equal values may be shown once. Toxic doses and inconclusive results are not listed.

For the molecule `CCCCNC(C)(C)C(SSSC(c1ccco1)C(C)(C)NCCCC)c1ccco1` (stereo not given), the T/C is, setting by setting: under setting [1], 115 % of control; under setting [2], 120 % of control.
In the case of `COC(=O)c1ccccc1NC(=O)NCCBr`, the T/C reads like this: under setting [3], 90 % of control; under setting [4], 100 % of control; under setting [5], 104 % of control.
Turning to `CC(=O)c1ccc(Cc2ccc(C(C)=O)cc2)cc1`, the T/C reads like this: under setting [6], 104 % of control; under setting [3], 100 % of control; under setting [7], 104 % of control; under setting [4], 109 % of control; under setting [8], 100 % of control; under setting [5], 95 % of control.
As for `CCCCCCCCCCC(C(=O)O)C1(C(=O)O)CCC(=O)O1` (stereo not given), the T/C is, setting by setting: under setting [9], 107 % of control; under setting [6], 107 % of control; under setting [7], 98 % of control.
For `C/C(=N\[N+](C)(C)C)c1cccc(C)n1`, the T/C reads like this: (dose: 25.0 mg/kg/injection, schedule: Q01DX009 (ip), vehicle: saline) 100 % of control; under setting [10], 108 % of control; (dose: 33.0 mg/kg/injection, schedule: Q04DX003 (ip), vehicle: saline with Tween-80) 100 % of control; (dose: 33.0 mg/kg/injection, schedule: Q04DX003 (ip), vehicle: saline) 104 % of control; under setting [11], 95 % of control; under setting [1], 100 % of control. Further, the T/C reads like this: under setting [12], 95 % of control; (dose: 75.0 mg/kg/injection, schedule: Q04DX003 (ip), vehicle: saline with Tween-80) 100 % of control; (dose: 75.0 mg/kg/injection, schedule: Q04DX003 (ip), vehicle: saline) 100 % of control; under setting [13], 108 % of control.
Take `COC(=O)C(C)CN1CCCCCC1` (stereo not given): the T/C is 109 % of control under setting [11]; 90 % of control (dose: 100.0 mg/kg/injection, schedule: Q01DX009 (ip), vehicle: saline); 109 % of control under setting [14].
As for `CC(C)CCCCc1c[nH]c(=O)[nH]c1=O`, the T/C is, setting by setting: under setting [15], 100 % of control; under setting [2], 100 % of control; (dose: 400.0 mg/kg/injection, schedule: Q04DX003 (ip), vehicle: saline with Tween-80) 100 % of control.
As for `Cc1cc(=O)cc(C(=O)O)o1`, the T/C runs as follows: under setting [10], 113 % of control; under setting [12], 100 % of control; under setting [13], 90 % of control.
On to `CCOC1c2cnc(C)n2C=CN1C(C)=O` (stereo not given), for which the T/C is, setting by setting: (dose: 50.0 mg/kg/injection, schedule: Q04DX003 (ip), vehicle: water) 109 % of control; (dose: 100.0 mg/kg/injection, schedule: Q04DX003 (ip), vehicle: water) 100 % of control and 104 % of control; (dose: 200.0 mg/kg/injection, schedule: Q04DX003 (ip), vehicle: water) 101 % of control and 111 % of control; (dose: 300.0 mg/kg/injection, schedule: Q04DX003 (ip), vehicle: water) 110 % of control; (dose: 400.0 mg/kg/injection, schedule: Q04DX003 (ip), vehicle: water) 118 % of control.
With `Oc1cccc2cccnc12`, the T/C was 100 % of control under setting [16] and 97 % of control under setting [17].
`CN(C)CCCNc1c2ccccc2nc2cccc([N+](=O)[O-])c12`: the T/C is, setting by setting: (dose: 0.2 mg/kg/injection, schedule: Q04DX003 (ip), vehicle: saline) 124 % of control; (dose: 0.5 mg/kg/injection, schedule: Q04DX003 (ip), vehicle: saline) 101 % of control.
For the molecule `CCCCCCCC(=O)Oc1c(Cl)c(Cl)c(C#N)c(Cl)c1C#N`, the T/C under setting [16] is 119 % of control.
As to `CS(=O)CC(O)(c1ccccc1)c1ccco1` (stereo not given), the T/C reads like this: under setting [16], 116 % of control; under setting [17], 107 % of control; (dose: 200.0 mg/kg/injection, schedule: Q01DX009 (ip), vehicle: saline with Tween-80) 106 % of control.
For the molecule `O=C(C[n+]1cc(Br)cc2ccccc21)c1ccc(O)c(O)c1`, the T/C reads like this: under setting [9], 95 % of control; (dose: 176.0 mg/kg/injection, schedule: Q04DX003 (ip), vehicle: saline sonified) 118 % of control; under setting [14], 170 % of control; under setting [4], 110 % of control; (dose: 200.0 mg/kg/injection, schedule: Q04DX003 (ip), vehicle: saline sonified) 122 % of control; (dose: 264.0 mg/kg/injection, schedule: Q01DX009 (ip), vehicle: saline with Tween-80) 113 % of control. The T/C runs as follows: under setting [8], 115 % of control; (dose: 400.0 mg/kg/injection, schedule: Q01DX009 (ip), vehicle: saline) 180 % of control; (dose: 400.0 mg/kg/injection, schedule: Q04DX003 (ip), vehicle: saline sonified) 118 % of control.
Regarding `O=C1c2ccccc2C(=O)C(Cl)C1Cl` (stereo not given), the T/C runs as follows: (dose: 1.56 mg/kg/injection, schedule: Q01DX009 (ip), vehicle: saline with Tween-80) 117 % of control; (dose: 3.13 mg/kg/injection, schedule: Q01DX009 (ip), vehicle: saline with Tween-80) 103 % of control; (dose: 6.25 mg/kg/injection, schedule: Q01DX009 (ip), vehicle: saline with Tween-80) 101 % of control.
Take `O=[N+]([O-])c1ccc(N=Cc2ccccc2)cc1`: the T/C is, setting by setting: under setting [3], 100 % of control; under setting [4], 108 % of control; under setting [5], 108 % of control.
With `NC(N)=Nc1nc2ccccc2s1`, the T/C reads like this: (dose: 12.5 mg/kg/injection, schedule: Q04DX003 (ip), vehicle: saline sonified) 104 % of control; (dose: 25.0 mg/kg/injection, schedule: Q04DX003 (ip), vehicle: saline sonified) 100 % of control; (dose: 50.0 mg/kg/injection, schedule: Q04DX003 (ip), vehicle: saline sonified) 100 % of control.
For `c1ccc2c(c1)nnn1c3ncccc3nc21`, the T/C under setting [16] is 115 % of control.
In the case of `COc1ccc(C=Nc2cccc3ccccc23)cc1`, the T/C is, setting by setting: (dose: 100.0 mg/kg/injection, schedule: Q01DX001 (ip), vehicle: saline sonified) 100 % of control; (dose: 200.0 mg/kg/injection, schedule: Q01DX001 (ip), vehicle: saline sonified) 100 % of control; (dose: 400.0 mg/kg/injection, schedule: Q01DX001 (ip), vehicle: saline sonified) 104 % of control.
On to `c1ccc(-c2oc3cc4c(cc3c2-c2ccc(OCCN3CCCC3)cc2)CCC4)cc1`, for which, under setting [15], the T/C is 95 % of control.
With `COc1cccc(/C=C/C(=O)c2ccc(Cl)cc2)c1OC`, the T/C runs as follows: (dose: 50.0 mg/kg/injection, schedule: Q01DX009 (ip), vehicle: other) 95 % of control; (dose: 100.0 mg/kg/injection, schedule: Q01DX009 (ip), vehicle: other) 104 % of control; under setting [17], 100 % of control; (dose: 200.0 mg/kg/injection, schedule: Q01DX009 (ip), vehicle: other) 95 % of control; (dose: 400.0 mg/kg/injection, schedule: Q01DX009 (ip), vehicle: saline with Tween-80) 100 % of control.
For the molecule `Nc1nc(-c2ccccc2)cc2ccccc12`, the T/C was 100 % of control (dose: 12.5 mg/kg/injection, schedule: Q04DX003 (ip), vehicle: saline with Tween-80) and 97 % of control (dose: 25.0 mg/kg/injection, schedule: Q04DX003 (ip), vehicle: saline with Tween-80).
`COc1ccc(Nc2cccc(Cl)c2)c(C(=O)O)c1`: the T/C (dose: 20.0 mg/kg/injection, schedule: Q01DX001 (ip), vehicle: Klucel (hydroxypropylcellulose) (HPC)) was 122 % of control; the T/C (dose: 40.0 mg/kg/injection, schedule: Q01DX001 (ip), vehicle: Klucel (hydroxypropylcellulose) (HPC)) is 100 % of control; the T/C (dose: 75.0 mg/kg/injection, schedule: Q01DX001 (ip), vehicle: Klucel (hydroxypropylcellulose) (HPC)) was 104 % of control; the T/C (dose: 150.0 mg/kg/injection, schedule: Q01DX001 (ip), vehicle: Klucel (hydroxypropylcellulose) (HPC)) was 100 % of control.
